Data as given in the NIST ThermoML archive (doi:10.1016/j.jct.2014.04.016).
Several values for one entry are separate records, joined by “and”; a condition that tells them apart may be missing. Identical values can stand only once. Numbers after ± are expanded uncertainties.

Assay: xn = mol fraction of the nth substance listed
Settings: 100 kPa, Liquid; for viscosity: Concentric cylinders viscometry; for mass density: Vibrating tube method; for electrical conductivity: Alternating current cell with electrodes

With `CCCCCCCCOS(=O)(=O)[O-].CCn1cc[n+](C)c1` [1-ethyl-3-methylimidazolium octyl sulfate] + O the viscosity (293.1 K, x1 = 0.3555) was 136.9 ± 9.7 mPa·s, the viscosity (293.1 K, x1 = 0.4108) was 154.7 ± 11 mPa·s and the mass density (293.1 K, x1 = 0.1197) was 1069.2 ± 1 kg/m3. For the same compound, the mass density (293.1 K, x1 = 0.1402) was 1072.6 ± 1 kg/m3, the mass density (293.1 K, x1 = 0.1605) was 1076.1 ± 1 kg/m3 and 1076.2 ± 1 kg/m3 and the mass density (293.1 K, x1 = 0.2632) was 1085.4 ± 1 kg/m3. For the same compound, the mass density (293.1 K, x1 = 0.3076) was 1087.6 ± 1 kg/m3, the mass density (293.1 K, x1 = 0.3555) was 1089.2 ± 1 kg/m3 and the mass density (293.1 K, x1 = 0.4108) was 1091.1 ± 1 kg/m3. The electrical conductivity (294.1 K, x1 = 0.1766) was 1 S/m, the electrical conductivity (294.1 K, x1 = 0.2119) was 0.826 S/m and 0.828 S/m and the electrical conductivity (294.1 K, x1 = 0.2632) was 0.585 ± 0.012 S/m. It also gave a viscosity (294.1 K, x1 = 0.1402) of 66.11 ± 4.3 mPa·s, a mass density (294.1 K, x1 = 0.1402) of 1072 ± 1 kg/m3 and an electrical conductivity (295.1 K, x1 = 0.0803) of 1.81 ± 0.038 S/m. For the same compound, the electrical conductivity (295.1 K, x1 = 0.1766) was 1.03 S/m, the electrical conductivity (295.1 K, x1 = 0.2119) was 0.85 S/m and 0.852 S/m and the electrical conductivity (295.1 K, x1 = 0.2632) was 0.606 ± 0.014 S/m. For the same compound, the electrical conductivity (295.1 K, x1 = 0.3555) was 0.387 S/m and 0.389 S/m, the electrical conductivity (295.1 K, x1 = 0.4108) was 0.32 ± 0.007 S/m and the viscosity (295.1 K, x1 = 0.1402) was 62.58 ± 4 mPa·s. For the same compound, the mass density (295.1 K, x1 = 0.1402) was 1071.3 ± 1 kg/m3, the electrical conductivity (296.1 K, x1 = 0.1605) was 1.18 S/m and the electrical conductivity (296.1 K, x1 = 0.1766) was 1.05 S/m and 1.06 S/m. The electrical conductivity (296.1 K, x1 = 0.2119) was 0.873 S/m and 0.875 S/m, the electrical conductivity (296.1 K, x1 = 0.2632) was 0.628 ± 0.013 S/m and the electrical conductivity (296.1 K, x1 = 0.3076) was 0.531 S/m and 0.533 S/m. For the same compound, the electrical conductivity (296.1 K, x1 = 0.4688) was 0.258 ± 0.006 S/m, the viscosity (296.1 K, x1 = 0.1402) was 59.29 ± 3.8 mPa·s and the mass density (296.1 K, x1 = 0.1402) was 1070.6 ± 1 kg/m3. For the same compound, the electrical conductivity (297.1 K, x1 = 0.1766) was 1.08 S/m, the electrical conductivity (297.1 K, x1 = 0.2119) was 0.9 ± 0.019 S/m and the electrical conductivity (297.1 K, x1 = 0.2632) was 0.651 ± 0.015 S/m. The viscosity (297.1 K, x1 = 0.1402) was 56.2 ± 3.6 mPa·s, the mass density (297.1 K, x1 = 0.1402) was 1069.9 ± 1 kg/m3 and the electrical conductivity (298.1 K, x1 = 0.0401) was 2.16 S/m. The electrical conductivity (298.1 K, x1 = 0.0586) was 2.14 S/m, the electrical conductivity (298.1 K, x1 = 0.0803) was 1.96 ± 0.04 S/m and the electrical conductivity (298.1 K, x1 = 0.1197) was 1.56 S/m. The electrical conductivity (298.1 K, x1 = 0.1402) was 1.38 S/m, the electrical conductivity (298.1 K, x1 = 0.1605) was 1.25 S/m and the electrical conductivity (298.1 K, x1 = 0.1766) was 1.11 S/m. For the same compound, the electrical conductivity (298.1 K, x1 = 0.2119) was 0.925 S/m and 0.921 S/m, the electrical conductivity (298.1 K, x1 = 0.2632) was 0.675 S/m and 0.669 S/m and the electrical conductivity (298.1 K, x1 = 0.3076) was 0.573 S/m and 0.572 S/m. The electrical conductivity (298.1 K, x1 = 0.3555) was 0.434 S/m and 0.435 S/m, the electrical conductivity (298.1 K, x1 = 0.4108) was 0.358 S/m and 0.355 S/m and the electrical conductivity (298.1 K, x1 = 0.4688) was 0.287 S/m and 0.254 S/m. The electrical conductivity (298.1 K, x1 = 0.5001) was 0.241 S/m and 0.236 S/m, the viscosity (298.1 K, x1 = 0.1197) was 46.3 ± 2.9 mPa·s and 46.17 ± 2.9 mPa·s and the viscosity (298.1 K, x1 = 0.1402) was 53.29 ± 3.4 mPa·s. The viscosity (298.1 K, x1 = 0.1605) was 59.39 ± 3.8 mPa·s and 57.63 ± 3.7 mPa·s, the viscosity (298.1 K, x1 = 0.2632) was 80.58 ± 5.3 mPa·s and 82.1 ± 5.4 mPa·s and the viscosity (298.1 K, x1 = 0.3076) was 89.42 ± 5.9 mPa·s.
